From patent publication US12075697B2, “Inert solution-processable molecular chromophores for organic electronic devices” (The Regents of the University of California, priority 2012, dated 2024)

Experiments:
Type in all cases: physicochemical
[1] = UV-visible absorption spectroscopy; conditions: for optical band gap: from λonset
Experimental: (§1) Optical properties were investigated using UV-visible absorption spectroscopy. […] Solution cyclic voltammetry measurements indicated the highest occupied molecular orbital (HOMO) and lowest unoccupied molecular orbital (LUMO) were −5.12 and −3.34 eV, respectively, and line up appropriately with the frontier molecular orbitals of common fullerene acceptors.
UV-vis: UV-visible spectroscopy were recorded using either a Beckman Coulter DU 800 series or Perkin Elmer Lambda 750 spectrophotometer at room temperature unless otherwise noted. All solution UV-vis experiments were run in CHCl3. Films were prepared by spin-coating CHCl3 or chlorobenzene solutions onto glass substrates. Films were annealed directly on a hot plate for 2 minutes.

[2] = Acid sensitivity: solution absorption profile as function of trifluoroacetic acid concentration; conditions: trifluoroacetic acid in chloroform, up to ten equivalents
Source text: To probe acid sensitivity, the solution absorption profiles of p-DTS(FBTTh2)2 (see Scheme 1, above) and d-DTS(PTTh2)2
[drawing 71] a pyridine-containing analog, were monitored as function of concentration of trifluoroacetic acid.

[3] = Solution cyclic voltammetry (HOMO/LUMO levels)
Experimental: as §1
Electrochemistry: All electrochemical measurements were performed using CHI instrument model 730B in a standard three-electrode, one compartment configuration equipped with Ag/AgCl electrode, Pt wire and Glassy carbon electrode (dia. 3 mm), as the pseudo reference, counter electrode and working electrode respectively. Glassy carbon electrodes were polished with alumina. The cyclic voltammetry (CV) experiments were performed in anhydrous dichloromethane solution with ˜0.1 M tetrabutylammonium hexafluorophosphate (TBAPF6) as the supporting electrolyte at scan rate 50 mV/s unless otherwise stated. All electrochemical solutions were purged with dry Ar for 15 minutes to deoxygenate the system. Solution CV measurements were carried out with a small molecule concentration of ˜1 mg/mL in CH2Cl2. Ferrocene was used as an internal standard. The HOMO and LUMO levels were obtained by correlating the onsets (Eox^Fc/Fc+, Erd^Fc/Fc+) to the normal hydrogen electrode (NHE), assuming HOMO of Fc/Fc^+ to be 4.88 eV.

In the case of `CCCCCCc1ccc(-c2ccc(-c3cc(F)c(-c4cc5c(s4)-c4sc(-c6c(F)cc(-c7ccc(-c8ccc(CCCCCC)s8)s7)c7nsnc67)cc4[Si]5(CC(CC)CCCC)CC(CC)CCCC)c4nsnc34)s2)s1` (stereo not drawn) [p-DTS(FBTTh2)2, 7,7′-(4,4-bis(2-ethylhexyl)-4H-silolo[3,2-b:4,5-b′]dithiophene-2,6-diyl)bis(6-fluoro-4-(5′-hexyl-[2,2′-bithiophen]-5-yl)benzo[c][1,2,5]thiadiazole)], the λmax ([1]; solid state (thin film)) is reported as 678 nm, the λonset ([1]; solid state (thin film)) is reported as 800 nm and the optical band gap ([1]; solid state) is reported as 1.55 eV. The λmax ([1]; solution (chloroform)) was 590 nm, the λonset ([1]; solution (chloroform)) was 670 nm and the optical band gap ([1]; solution (chloroform)) was 1.85 eV. For the same compound, the “change of absorption spectrum on addition of acid” value [2] was “remains effectively unchanged”, the “highest occupied molecular orbital (HOMO)” value [3] was −5.12 eV and the “lowest unoccupied molecular orbital (LUMO)” value [3] was −3.34 eV.
